Assay [1] concerns HepG2 liver cells. The assay can be described thus: Insulin- and glucose-stimulated glycogen synthase activity in stable tissue culture cells. It is filed as cell-based. The note with it: addition of insulin and glucose, in the presence of the GSK3 inhibitor. An excerpt: Assays for glucose uptake and glycogen synthesis can be conducted as described for cell-based assays generally. To measure glucose uptake and glycogen synthesis, a variety of stable tissue culture cell lines that respond to insulin stimulation by increasing the synthesis of glycogen and increasing the rate of glucose uptake from the medium can be used. These include HepG2 liver cells, CHO-IR cells, and Hirc cells. Under appropriate conditions the addition of insulin and glucose to HepG2 cells stimulates glycogen synthase activity and this stimulation of potentiated in the presence of the GSK3 inhibitor iodotubercidin. The response of glucose uptake in these cells to insulin, glucose and inhibitor can be as much as six fold, and consequently this assay is useful to detect the ability of inhibitors to potentiate glycogen synthesis in cells.

The test system of assay [2] is Drosophila cells. The assay can be described thus: β-catenin stabilization assay of intracellular GSK3 activity (western blot). The assay is classed as cell-based. To be noted: addition to Drosophila cells; detected on a western blot. An excerpt: Other assays that test functional GSK3 also provide a further test of intracellular GSK3 activity. These assays rely on the ability to observe indirect consequences of GSK3 activity within cells. An example of such an assay involves β-catenin stabilization. Cellular GSK3 activity leads to the destabilization of cytosolic pools of β-catenin in certain types of cell. Consequently, inhibition of GSK3 results in β-catenin stabilization and accumulation, which be detected on a western blot. […] Similarly, LiCl in the cell culture medium causes an increase in intracellular β-catenin levels as described in Stambolic et al, Cur. Biol. 6(12): 1664-8 (1996).
On the technique in general: A western blot detects proteins with antibodies after separation by electrophoresis.

Structures are written as SMILES.

Regarding `Nc1ncnc2c1c(I)cn2[C@@H]1O[C@H](CO)[C@@H](O)[C@H]1O` [iodotubercidin], in assay [1], the “stimulation of glycogen synthase activity by insulin and glucose” value is recorded as “potentiated”. Further, the β-catenin accumulation entry in assay [2] is on record as “leads to β-catenin accumulation”.

The record behind these values is US6057286A, “Identification and use of selective inhibitors of glycogen synthase kinase 3” (Chiron Corporation, priority 1997, dated 2000).
